Measurements reported in article PMC12037858 (Scientific Reports, 2025).

Molecular target: Fascin (Homo sapiens, UniProt Q16658)
Experiment: Image-based F-actin bundling assay
Type: biochemical
Conditions: 400 µM compound

O=C(Nc1ccncc1)c1cn(Cc2ccc(Cl)c(Cl)c2)c(=O)c2cnn(C3CCNCC3)c12 [BDP-13176]
Inhibition of fascin-mediated F-actin bundle formation: prevents fiber formation
